Reference: the supplement of paper PMC11061612

Assays:
Test in all cases: combination Emax (second highest fraction inhibited in the dose matrix, 72 h); higher = more inhibition; extreme values may be limits of the assay
[1] = test system: RPMI-6666 (Non-Cancerous)
Procedure, shortened: (§1)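 After 24 hours at 37°C and 5% CO2 in 1536-well plates, cells in DMEM/F12 or RPMI plus 10% FBS received two-drug dose matrices for 72 hours. Viability came from CellTiter-Glo 2.0 luminescence and was scaled as inhibition, anchored at 0 by vehicle wells and at 1 by blank wells. Combination Emax is taken as the second-highest inhibition in the matrix, and Bliss excess as the observed combination effect less EA + EB − EA·EB, with EA and EB the single-agent effects.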

[2] = test system: CAPAN-1 (Pancreatic Carcinoma)
Procedure, shortened: as §1

[3] = test system: HMV-II (Melanoma)
Procedure, shortened: as §1

[4] = test system: Mewo (Melanoma)
Procedure, shortened: as §1

[5] = test system: RKO (Colorectal Carcinoma)
Procedure, shortened: as §1

[6] = test system: EN (Endometrial Carcinoma)
Procedure, shortened: as §1

[7] = test system: UMC-11 (Other Solid Carcinomas)
Procedure, shortened: as §1

[8] = test system: NCI-H747 (Colorectal Carcinoma)
Procedure, shortened: as §1

| Compound | combination Emax [1] | combination Emax [2] | combination Emax [3] | combination Emax [4] | combination Emax [5] | combination Emax [6] | combination Emax [7] | combination Emax [8] |
| --- | --- | --- | --- | --- | --- | --- | --- | --- |
| C=CCn1c(=O)c2cnc(Nc3ccc(N4CCN(C)CC4)cc3)nc2n1-c1cccc(C(C)(C)O)n1 [AZD1775] + CCc1c2c(nc3ccc(O)cc13)-c1cc3c(c(=O)n1C2)COC(=O)[C@]3(O)CC [SN-38] (first compound max 1 µM, partner max 0.3 µM) | 0.917 | 0.799 | 0.634 | 0.676 | 0.966 | 0.699 |  |  |
| CC(=O)c1c(C)c2cnc(Nc3ccc(N4CCNCC4)cn3)nc2n(C2CCCC2)c1=O [Palbociclib] + Cn1cnc2c(F)c(Nc3ccc(Br)cc3Cl)c(C(=O)NOCCO)cc21 [Selumetinib] (first compound max 10 µM, 7x7, partner max 10 µM) | 0.65 | 0.382 | 0.809 | 0.485 | 0.715 | 0.184 | 0.462 | 0.811 |
| NC1(C(=O)N[C@@H](CCO)c2ccc(Cl)cc2)CCN(c2ncnc3[nH]ccc23)CC1 [Capivasertib] + CCN(CCO)CCCOc1ccc2c(Nc3cc(CC(=O)Nc4cccc(F)c4)[nH]n3)ncnc2c1 [AZD2811] (first compound max 10 µM, 7x7, partner max 1 µM) | 0.675 | 0.225 | 0.445 | 0.401 | 0.615 | 0.661 | 0.879 | 0.631 |
| CC1(C)CCC(CN2CCN(c3ccc(C(=O)NS(=O)(=O)c4ccc(NCC5CCOCC5)c([N+](=O)[O-])c4)c(Oc4cnc5[nH]ccc5c4)c3)CC2)=C(c2ccc(Cl)cc2)C1 [Venetoclax] + C=CCn1c(=O)c2cnc(Nc3ccc(N4CCN(C)CC4)cc3)nc2n1-c1cccc(C(C)(C)O)n1 [AZD1775] (first compound max 1 µM, partner max 1 µM) | 0.996 | 0.45 | 0.484 | 0.621 | 0.88 | 0.653 | 0.487 | 0.479 |
| COc1nnc2ccc(N3CCC(c4ccc(OCCN5CCN(C)C(=O)[C@H]5C)cc4)CC3)nn12 [AZD5153] + Cc1c2c(nn1C)CSCc1cc(n(C)n1)CSc1cc(c3ccccc3c1)OCCCc1c(C(=O)O)n(C)c3c-2c(Cl)ccc13 [AZD5991] (first compound max 1 µM, 7x7, partner max 1 µM) | 0.804 | 0.417 | 0.76 | 0.719 | 0.78 | 0.645 | 0.994 | 0.734 |
| CC1(C)CCC(CN2CCN(c3ccc(C(=O)NS(=O)(=O)c4ccc(NCC5CCOCC5)c([N+](=O)[O-])c4)c(Oc4cnc5[nH]ccc5c4)c3)CC2)=C(c2ccc(Cl)cc2)C1 [Venetoclax] + COc1cc(Nc2ncc3c(n2)-c2ccc(Cl)cc2C(c2c(F)cccc2OC)=NC3)ccc1C(=O)O [Alisertib] (first compound max 1 µM, 7x7, partner max 10 µM) | 0.967 | 0.28 | 0.363 | 0.416 | 0.487 | 0.463 | 0.798 | 0.419 |
| Cn1cnc2c(F)c(Nc3ccc(Br)cc3Cl)c(C(=O)NOCCO)cc21 [Selumetinib] + CCN(CCO)CCCOc1ccc2c(Nc3cc(CC(=O)Nc4cccc(F)c4)[nH]n3)ncnc2c1 [AZD2811] (first compound max 10 µM, 7x7, partner max 1 µM) | 0.557 | 0.426 | 0.717 | 0.444 | 0.838 | 0.569 | 0.818 | 0.793 |
| C[C@@H](c1ccc2nccn2c1)n1nnc2ncc(-c3cnn(C)c3)nc21 [Savolitinib] + Cc1c2c(nn1C)CSCc1cc(n(C)n1)CSc1cc(c3ccccc3c1)OCCCc1c(C(=O)O)n(C)c3c-2c(Cl)ccc13 [AZD5991] (first compound max 1 µM, 7x7, partner max 1 µM) | 0.523 | 0.242 | 0.128 | 0.265 | 0.211 | 0.43 | 0.275 | 0.337 |
| COc1nnc2ccc(N3CCC(c4ccc(OCCN5CCN(C)C(=O)[C@H]5C)cc4)CC3)nn12 [AZD5153] + Cn1cnc2c(F)c(Nc3ccc(Br)cc3Cl)c(C(=O)NOCCO)cc21 [Selumetinib] (first compound max 1 µM, 7x7, partner max 10 µM) | 0.692 | 0.664 | 0.927 | 0.663 | 0.88 | 0.289 | 0.704 | 0.937 |
| CC1(C)CCC(CN2CCN(c3ccc(C(=O)NS(=O)(=O)c4ccc(NCC5CCOCC5)c([N+](=O)[O-])c4)c(Oc4cnc5[nH]ccc5c4)c3)CC2)=C(c2ccc(Cl)cc2)C1 [Venetoclax] + Cc1cc2ncnn2cc1Nc1ncc2c(n1)n(C1CCOCC1)c(=O)n2C [AZD7648] (first compound max 1 µM, 7x7, partner max 10 µM) | 0.959 | 0.195 | 0.263 | 0.509 | 0.275 | 0.49 | 0.414 | 0.414 |
| Cn1cnc2c(F)c(Nc3ccc(Br)cc3Cl)c(C(=O)NOCCO)cc21 [Selumetinib] + C=CCn1c(=O)c2cnc(Nc3ccc(N4CCN(C)CC4)cc3)nc2n1-c1cccc(C(C)(C)O)n1 [AZD1775] (first compound max 10 µM, partner max 1 µM) | 0.829 | 0.59 | 0.812 | 0.47 | 0.904 | 0.587 | 0.584 | 0.793 |
| CN(CCO)CC[C@H](CSc1ccccc1)Nc1ccc(S(=O)(=O)NC(=O)c2ccc(N3CCC([C@@H](O)c4ccccc4-c4ccc(Cl)cc4)CC3)cc2)cc1S(=O)(=O)C(F)(F)F [AZD4320] + Cn1cnc2c(F)c(Nc3ccc(Br)cc3Cl)c(C(=O)NOCCO)cc21 [Selumetinib] (first compound max 1 µM, 7x7, partner max 3 µM) | 0.992 | 0.802 | 0.826 | 0.528 | 0.754 | 0.29 | 0.467 | 0.793 |
| CS(=O)(=O)CCNCc1ccc(-c2ccc3ncnc(Nc4ccc(OCc5cccc(F)c5)c(Cl)c4)c3c2)o1 [Lapatinib] + C[C@@H](Oc1cc(-c2cnn(C3CCNCC3)c2)cnc1N)c1c(Cl)ccc(F)c1Cl [Crizotinib] (first compound max 10 µM, 7x7, partner max 10 µM) | 0.843 | 0.527 | 0.912 | 0.537 | 0.942 | 0.559 | 0.703 | 0.926 |
| NC1(C(=O)N[C@@H](CCO)c2ccc(Cl)cc2)CCN(c2ncnc3[nH]ccc23)CC1 [Capivasertib] + CC(=O)c1c(C)c2cnc(Nc3ccc(N4CCNCC4)cn3)nc2n(C2CCCC2)c1=O [Palbociclib] (first compound max 10 µM, 7x7, partner max 10 µM) | 0.675 | 0.277 | 0.524 | 0.493 | 0.601 | 0.546 | 0.553 | 0.795 |
| CS(=O)(=O)CCNCc1ccc(-c2ccc3ncnc(Nc4ccc(OCc5cccc(F)c5)c(Cl)c4)c3c2)o1 [Lapatinib] + Cn1cnc2c(F)c(Nc3ccc(Br)cc3Cl)c(C(=O)NOCCO)cc21 [Selumetinib] (first compound max 10 µM, 7x7, partner max 10 µM) | 0.462 | 0.615 | 0.768 | 0.503 | 0.763 | 0.345 |  |  |
| Cc1nc(-c2cn3c(n2)-c2ccc(-c4cnn(C(C)(C)C(N)=O)c4)cc2OCC3)n(C(C)C)n1 [Taselisib] + O=C(Nc1ccc2[nH]nc(-c3ccncc3)c2c1)[C@@H]1CCN(CC(=O)N2CCN(c3ccc(-c4ncccn4)cc3)CC2)C1 [SCH772984] (first compound max 10 µM, 7x7, partner max 5 µM) | 0.716 | 0.77 | 0.867 | 0.777 | 0.961 | 0.619 |  |  |
| CS(=O)(=O)CCNCc1ccc(-c2ccc3ncnc(Nc4ccc(OCc5cccc(F)c5)c(Cl)c4)c3c2)o1 [Lapatinib] + NC1(c2ccc(-c3nc4ccn5c(=O)[nH]nc5c4cc3-c3ccccc3)cc2)CCC1 [MK-2206] (first compound max 10 µM, 7x7, partner max 10 µM) | 0.766 | 0.331 | 0.904 | 0.521 | 0.931 | 0.512 |  | 0.898 |
